Test results taken from article PMC10813298, “Evidence of Guanidines Potential against Leishmania (Viannia) braziliensis: Exploring In Vitro Effectiveness, Toxicities and of Innate Immunity Response Effects” (Biomolecules, 2023).
Like-named read-outs stand apart in the source and are kept apart here.

Experiments:
[1] = Cytotoxicity against RAW 264.7 macrophages (MTT); assay type: cell-based, murine; details: mouse, RAW 264.7 macrophages, pH 7.2, RAW 264.7 cells
Description: Murine macrophage cell line RAW 264.7 was used in this study. The cells were cultured in 75 cm^2 cell culture flasks (Corning Glass Workers, New York, NY, USA) using DMEM medium with a pH of 7.2, supplemented with 10% FBS and 1% antibiotic solution (containing 100 U/mL penicillin and 100 μg/mL streptomycin). The cells were maintained in an incubator at a temperature of 37 °C with 5% CO2. The spikes were performed after the cells reached complete confluence, characterized by the formation of a monolayer of cells around 48 h to 72 h after packaging.
(§1) In this study, we utilized the RAW 264.7 macrophages line (obtained from ATCC: code TIB-71™),human embryonic kidney cell line HEK-293 (obtained from ATCC: code CRL-1573™)and two human cancer cell cultures: the colon carcinoma cell line CaCo-2 and the adenocarcinomic human alveolar basal epithelial cell A549 (also obtained from ATCC: codesHTB-37™ and CCL-185™).These cell lines were cultured in Dulbecco’s modified Eagle medium (DMEM) from Gibco by Life Technologies (LifeTech Austria, Vienna, Austria). The growth medium was supplemented with 5% fetal bovine serum (FBS) from Gibco by Life Technologies and 1% penicillin-streptomycin obtained from Sigma-Aldrich (Vienna, Austria). The cells were maintained at 37 °C with 5% CO2 in a humidified incubator, and regular checks for mycoplasma contamination were carried out.
(§2) For experimental purposes, the cells were seeded into 96-well plates at a density of 2 × 10^4 cells/mL, with each well containing 100 µL of the cell suspension. The cells were allowed to adhere for 24 h. Subsequently, they were exposed to 100 µL of the test compounds, which were diluted in DMEM, with concentrations ranging from 2 to 600 µmol/L. The stock solutions of these compounds were prepared in water with 10% (v/v) dimethyl sulfoxide (DMSO) and stored at 4 °C.
(§3) To assess cell viability after 72 h of exposure to the compounds, we employed a 3-(4,5-dimethylthiazol-2-yl)-2,5-diphenyltetrazolium bromide (MTT)-based vitality assay kit (EZ4U, Biomedica, Vienna, Austria). Briefly, we added 20 µL of the EZ4U assay solution to each well and incubated the plates in the dark for 2 h. Subsequently, we measured the absorbance using a microplate reader at 450 nm, with 620 nm as a reference to reduce unspecific background values. For reliability, all experiments were conducted three times with triplicate samples.
(§4) The different mean concentrations for promastigotes (IC50) and macrophages (CC50) were calculated using nonlinear regression. For comparisons between groups, ANOVA analysis of variance was performed followed by Tukey’s test in a statistical program, taking the p-value < 0.05 as the maximum level of statistical significance.

[2] = Cell toxicity, MTT-based EZ4U assay, CaCo-2; details: human, CaCo-2 cells (colon carcinoma); for viability at 72 h, 2.34 µmol/L: CACO2, 2.34 µmol/L; for viability at 72 h, 4.6875 µmol/L: CACO2, 4.6875 µmol/L; for viability at 72 h, 9.375 µmol/L: CACO2, 9.375 µmol/L; for viability at 72 h, 18.75 µmol/L: CACO2, 18.75 µmol/L; for viability at 72 h, 37.5 µmol/L: CACO2, 37.5 µmol/L; for viability at 72 h, 75 µmol/L: CACO2, 75 µmol/L; for viability at 72 h, 150 µmol/L: CACO2, 150 µmol/L; for viability at 72 h, 300 µmol/L: CACO2, 300 µmol/L; for viability at 72 h, 600 µmol/L: CACO2, 600 µmol/L
Description: as §1, §2, §3

[3] = test system: reactive oxygen species (ROS); test: ROS production (H2DCFDA) in infected RAW 264.7 macrophages; assay type: cell-based, murine; details: RAW 264.7 macrophages infected with L. (V.) braziliensis
Description: To quantify the levels of ROS generated by L. (V.) braziliensis-infected RAW 264.7 macrophages, the following procedure was employed: RAW 264.7 macrophages (1 × 10^5 cells per well) were added to a 96-well plate, with each well containing 100 μL of supplemented DMEM medium. These cells were allowed to incubate for 3 h at 37 °C with 5% CO2 to promote cell adhesion. Subsequently, the macrophages were infected with L. (V.) braziliensis at a ratio of 10:1 (promastigotes to macrophages) and incubated for 4 h. After the infection period, the cells were plated and incubated with various concentrations of test substances, ranging from 3.12 to 25 μmol/L. This incubation was carried out at 37 °C with 5% CO2 for duration of 72 h. Following the incubation period, 10 µL of H2DCFDA dye was added to each well, resulting in a final concentration of 20 µmol/L. The cells were then incubated at 37 °C in the dark for 30 min. The fluorescent intensity was measured using a fluorescence plate reader (FLx800) at an excitation wavelength of 485 nm and an emission wavelength of 528 nm. The fold change in ROS levels was calculated by comparing the results to a normal control.

[4] = test system: L. (V.) braziliensis promastigotes; test: Antileishmanial activity on promastigotes (MTT, 72 h); assay type: cell-based, Leishmania (Viannia) braziliensis
Description: Leishmania (Viannia) braziliensis (MHOM/BR/1975/M2903) was utilized in this study. The promastigote forms of these parasites were maintained in vitro in Schneider’s insect medium pH 7.2, supplemented with 20% fetal bovine serum (FBS) and 1% antibiotic solution (100 U/mL penicillin and 100 μg/mL streptomycin) at a temperature of 26 ± 1 °C in a Biochemical Oxygen Demand (BOD) incubator (Eletrolab EL202, São Paulo, Brazil), with regular aeration and weekly subculturing.
Assessment of antileishmanial activity against promastigote and amastigote axenic forms of parasites followed the method described by Rodrigues et al. and involved the following steps: L. (V.) braziliensis parasites were cultured in 96-well plates at a concentration of 1 × 10^6 parasites per well. Each well contained 100 μL of supplemented Schneider medium. Serial concentrations of the test substances, ranging from 50 to 1.56 μmol/L, were prepared. Reference drugs, meglumine antimoniate (20 to 40,000 μmol/L) and amphotericin B (0.031 to 2 μmol/L) were also prepared. These concentrations were used to assess the effects of the test substances in comparison to reference drugs. The plates were incubated in a BOD incubator at 26 °C for 72 h. After the 72 h incubation period, 10 μL of MTT (5 mg/mL) was added to each well. The plates were then incubated for an additional 4 h. At the end of the 4 h incubation, formazan crystals formed by the reduction of the MTT salt were solubilized by adding 50 μL of a 10% (w/v) sodium dodecyl sulfate (SDS) solution in distilled water. Absorbance was measured using a microplate reader at a wavelength of 540 nm (Biosystems ELx800 model, Curitiba, PR, Brazil). This measurement quantified the metabolic activity of the parasites, which is indicative of their viability and proliferation. Schneider medium containing 0.2% DMSO was used as a negative control in the tests.
as §4

Row | Structure (SMILES) | CC50 at 72 h [1] [µM] | viability at 72 h, 2.34 µmol/L [2] [%] | viability at 72 h, 4.6875 µmol/L [2] [%] | viability at 72 h, 9.375 µmol/L [2] [%] | viability at 72 h, 18.75 µmol/L [2] [%] | viability at 72 h, 37.5 µmol/L [2] [%] | viability at 72 h, 75 µmol/L [2] [%] | viability at 72 h, 150 µmol/L [2] [%] | viability at 72 h, 300 µmol/L [2] [%] | viability at 72 h, 600 µmol/L [2] [%] | ROS level [3] | IC50 [4] [µM] | IC50 ([4]; Leishmania braziliensis) [µM]
1 | O=C(/N=C(/NCc1ccccc1)Nc1ccc([N+](=O)[O-])cc1)c1ccccc1 [LQOF-G1, (Z)-N-benzoyl-N-benzyl-N-(4-nitrophenyl)guanidine] | 147 ± 2 | 106 ± 8 | 109 ± 5 | 109 ± 7 | 109 ± 10 | 97 ± 13 | 99 ± 7 | 107 ± 3 | 103 ± 10 | 119 ± 5 | increased | 4.6 ± 0.5 | 4.62
2 | O=C(/N=C(/NCc1ccccc1)Nc1ccc(Br)cc1)c1ccccc1 [LQOF-G2, (Z)-N-benzoyl-N-benzyl-N-(4-bromophenyl)guanidine] | 164 ± 2.9 | 106 ± 3.6 | 109 ± 13.6 | 109 ± 14.7 | 103 ± 5.7 | 97 ± 4.9 | 99 ± 6.4 | 107 ± 5.3 | 103 ± 6.6 | 119 ± 8.8 | increased |  | 5.4 ± 0.8
3 | CC(C)(C)c1ccc(N/C(=N\C(=O)c2ccccc2)NCc2ccccc2)cc1 [LQOF-G6, (Z)-N-benzoyl-N-benzyl-N-(4-tert-butylphenyl)guanidine] | 154 ± 2.3 |  |  |  |  |  |  |  |  |  | increased |  | 5.9 ± 0.9
4 | O=C(/N=C(/NCc1ccccc1)Nc1ccc(I)cc1)c1ccccc1 [LQOF-G7, (Z)-N-benzoyl-N-benzyl-N-(4-iodophenyl)guanidine] | 183 ± 3.1 |  |  |  |  |  |  |  |  |  |  |  | 7.2 ± 0.6
5 | O=C(/N=C(/NCc1ccc(Cl)cc1Cl)Nc1ccc(Br)cc1)c1ccccc1 [LQOF-G32, (Z)-N-benzoyl-N-(2,4-di-chlorobenzyl)-N-(4-bromophenyl)guanidine] | 275.9 ± 2.4 | 138 ± 8.4 | 123 ± 11.4 | 117 ± 7.3 | 116 ± 9.7 | 79 ± 6.4 | 53 ± 14.8 | 45 ± 10.4 | 45 ± 15.9 | 66 ± 12.3 |  |  | 17.2 ± 1
